The target in experiment [1] is hGYS2 enzyme (recombinant hGYS2/GN1 protein) (Homo sapiens (Human), UniProt P54840). Put plainly: GYS2 coupled enzyme assay (PK/LDH). Format: biochemical. Conditions: geometric mean of at least 2 assay runs on separate days, read-out: Avg_IC50. Put shortly:
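Recombinant hGYS2/GN1 (200 nM) with 2 mM UDP-glucose, 0.2% rabbit liver glycogen, 2 mM glucose-6-phosphate; UDP coupled via PK/LDH (2 mM PEP, 0.6 mM NADH). Buffer 50 mM Tris pH 7.5, 2 mM MgCl2, 100 mM KCl, 2.5% DMSO. A340 slope over 10 min; IC50 from Hill fit of duplicates.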

For experiment [2], the target named is hGYS1 enzyme (recombinant hGYS1/GN1 protein) (Homo sapiens (Human), UniProt P13807). The experiment can be described thus: GYS1 coupled enzyme assay (PK/LDH). The experiment is classed as biochemical. The settings on record: hGYS1/GN1 50 nM, UDP-Glucose 0.8 mM, G6P 1 mM; geometric mean of at least 2 runs.

pIC50: −log10 of the molar value.

Sequence of hGYS2 enzyme (recombinant hGYS2/GN1 protein) (P54840 whole entry): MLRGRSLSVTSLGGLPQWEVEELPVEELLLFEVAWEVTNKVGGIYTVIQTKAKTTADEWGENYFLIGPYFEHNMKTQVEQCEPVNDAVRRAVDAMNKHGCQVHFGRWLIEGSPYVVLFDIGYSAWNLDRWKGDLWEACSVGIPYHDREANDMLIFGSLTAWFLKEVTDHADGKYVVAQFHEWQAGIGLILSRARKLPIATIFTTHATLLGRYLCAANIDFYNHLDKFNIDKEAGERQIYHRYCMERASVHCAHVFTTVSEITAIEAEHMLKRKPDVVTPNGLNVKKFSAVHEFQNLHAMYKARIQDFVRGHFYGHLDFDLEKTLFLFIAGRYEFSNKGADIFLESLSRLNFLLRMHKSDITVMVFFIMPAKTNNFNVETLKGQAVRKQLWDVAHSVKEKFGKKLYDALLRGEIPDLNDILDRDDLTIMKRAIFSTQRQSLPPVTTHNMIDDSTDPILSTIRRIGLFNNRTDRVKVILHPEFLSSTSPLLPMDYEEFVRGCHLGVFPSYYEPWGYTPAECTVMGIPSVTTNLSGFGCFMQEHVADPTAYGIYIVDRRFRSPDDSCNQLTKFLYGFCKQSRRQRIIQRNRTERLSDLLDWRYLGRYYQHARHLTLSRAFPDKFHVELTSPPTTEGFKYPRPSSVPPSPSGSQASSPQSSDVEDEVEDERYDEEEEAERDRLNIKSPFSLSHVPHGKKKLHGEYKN
Sequence of hGYS2 enzyme (recombinant hGYS2/GN1 protein) (P46976 whole entry partner): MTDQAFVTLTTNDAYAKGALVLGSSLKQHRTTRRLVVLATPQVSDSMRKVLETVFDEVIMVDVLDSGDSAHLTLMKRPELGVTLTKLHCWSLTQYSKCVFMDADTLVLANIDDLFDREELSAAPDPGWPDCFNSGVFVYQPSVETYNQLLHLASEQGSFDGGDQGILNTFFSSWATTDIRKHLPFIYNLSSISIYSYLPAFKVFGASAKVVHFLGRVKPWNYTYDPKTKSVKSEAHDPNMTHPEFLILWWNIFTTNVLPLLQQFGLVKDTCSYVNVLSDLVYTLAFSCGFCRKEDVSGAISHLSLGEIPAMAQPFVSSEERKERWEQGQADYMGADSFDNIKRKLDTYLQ
Sequence of hGYS1 enzyme (recombinant hGYS1/GN1 protein) (P13807 whole entry): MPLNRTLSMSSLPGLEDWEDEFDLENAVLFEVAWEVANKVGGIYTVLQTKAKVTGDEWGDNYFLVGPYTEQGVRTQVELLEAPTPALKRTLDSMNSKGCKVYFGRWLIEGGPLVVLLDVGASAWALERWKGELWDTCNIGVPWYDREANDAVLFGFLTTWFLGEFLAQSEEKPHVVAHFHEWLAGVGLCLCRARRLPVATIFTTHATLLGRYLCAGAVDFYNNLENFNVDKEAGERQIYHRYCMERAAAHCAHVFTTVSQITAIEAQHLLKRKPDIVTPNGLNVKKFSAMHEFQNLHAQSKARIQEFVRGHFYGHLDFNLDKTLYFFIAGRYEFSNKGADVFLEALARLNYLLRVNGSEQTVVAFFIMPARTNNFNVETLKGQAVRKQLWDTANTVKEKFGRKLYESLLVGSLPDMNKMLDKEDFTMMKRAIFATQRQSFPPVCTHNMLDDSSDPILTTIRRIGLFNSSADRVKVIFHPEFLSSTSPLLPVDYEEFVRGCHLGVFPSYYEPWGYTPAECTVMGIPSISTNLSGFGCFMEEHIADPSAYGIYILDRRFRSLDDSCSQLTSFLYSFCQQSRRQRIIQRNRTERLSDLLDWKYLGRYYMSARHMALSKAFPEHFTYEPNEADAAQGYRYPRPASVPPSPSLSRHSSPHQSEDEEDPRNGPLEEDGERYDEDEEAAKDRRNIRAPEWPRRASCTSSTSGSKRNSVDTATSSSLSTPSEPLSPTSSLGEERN
Sequence of hGYS1 enzyme (recombinant hGYS1/GN1 protein) (P46976 whole entry partner): as the sequence (P46976 whole entry partner) above

`CC(C)c1ccc([C@@H](NC(=O)[C@@H]2C[C@@H](F)CN2C(=O)Cc2cnn[nH]2)c2ccc(F)cc2)cc1F` [Compound 646, (2S,4R)-4-fluoro-N-[(S)-[3-fluoro-4-(propan-2-yl)phenyl](4-fluorophenyl)methyl]-1-[2-(1H-1,2,3-triazol-5-yl)acetyl]pyrrolidine-2-carboxamide]: the pIC50 in experiment [1] was < 4.00; in experiment [2] it was 7.32.
The matching figures for `O=C(N[C@@H](c1ccccc1)c1ccc(C2CC2)c(Cl)c1)[C@@H]1C[C@@H](F)CN1C(=O)Cc1cnn[nH]1` [Compound 664, (2S,4R)-N-[(S)-(3-chloro-4-cyclopropylphenyl) (phenyl)methyl]-4-fluoro-1-[2-(1H-1,2,3-triazol-5-yl)acetyl]pyrrolidine-2-carboxamide]: < 4.00 and 6.94.
Consider `Cc1cc([C@@H](NC(=O)[C@@H]2C[C@@H](F)CN2C(=O)Cc2cnn[nH]2)c2ccccc2)ccc1C1CC1` [Compound 665, (2S,4R)-N-[(S)-(4-cyclopropyl-3-methylphenyl) (phenyl)methyl]-4-fluoro-1-[2-(1H-1,2,3-triazol-5-yl)acetyl]pyrrolidine-2-carboxamide], for which the pIC50 in experiment [1] is < 4.00; in experiment [2], 7.00.
The matching figures for `CC(C)c1ccc([C@H](NC(=O)[C@@H]2C[C@@H](F)CN2C(=O)Cc2cnn[nH]2)c2ccccc2)cc1Cl` [Compound 671, (2S,4R)-N-[(R)-[3-chloro-4-(propan-2-yl)phenyl](phenyl)methyl]-4-fluoro-1-[2-(1H-1,2,3-triazol-5-yl)acetyl]pyrrolidine-2-carboxamide]: < 4.00 and 6.07.
On the same counts, the results for `CC(=O)N[C@@H](CC(N)=O)C(=O)N1C[C@H](F)C[C@H]1C(=O)N[C@@H](c1ccccc1)c1ccc(C(C)C)c(F)c1` [Compound 765, (2S,4R)-1-[(2S)-3-carbamoyl-2-acetamidopropanoyl]-4-fluoro-N-[(S)-[3-fluoro-4-(propan-2-yl)phenyl](phenyl)methyl] pyrrolidine-2-carboxamide] are < 4.00 and 7.33.
The matching figures for “(2S,4R)-N-[(S)-(4- cyclopropyl-3- fluorophenyl)(phenyl) methyl]-4-fluoro-1- [2-(1H-1,2,3-triazol-5- yl)acetyl]pyrrolidine- 2-carboxamide [Compound 439]”: < 4.00 and 6.73.

The values are drawn from patent US11814367B2, “Inhibitors of glycogen synthase 1 (GYS1) and methods of use thereof” (Maze Therapeutics, Inc., priority 2021, dated 2023).
